{
  "source": "patent US12616203B2",
  "about": "“Use of 3-isoxazolidinones compounds as selective herbicides” (FMC Corporation, priority 2014, dated 2026)",
  "key": {"weeds [1]": {"system": "weeds", "assay": "Ex13 PRE greenhouse", "format": "in vivo", "conditions": "28 DAT, weed and rate in the words", "text": "Pyroxasulfone (KIH-485, 85%) at 74.3 g ai/ha, pendimethalin (Prowl 3.3EC, 37.4%) at 1200 g ai/ha, or a premix of chlorsulfuron plus metsulfuron-methyl (Report Extra, 75%) at 15.8 g ai/ha were applied as commercial standards. […] Treatments were replicated 3 times and flats were watered after planting before the treatment and lightly watered after treatment application. Thereafter flats were watered and fertilized routinely."}, "weeds; Sugarcane (CTC20)": {"system": "weeds; Sugarcane (CTC20)", "assay": "Ex23 PRE greenhouse", "conditions": "28 DAT, weed and rate in the words"}, "Wild buckwheat": {"system": "Wild buckwheat", "assay": "Ex15 PRE 2,4-DC + S-metolachlor, % control 28 DAT, Colby", "format": "in vivo, Polygonum convolvulus", "text": "The weeds tested in this study were redroot pigweed (Amaranthus retroflexus, AMARE), Jimsonweed (Datura stramonium, DATST), black nightshade (Solanum nigrum, SOLNI), large crabgrass (Digitaria sanguinalis, DIGSA), Pennsylvania smartweed (Polygonum pensylvanicum, POLPY), horseweed (Conyza canadensis, ERICA), wild buckwheat (Polygonum convolvulus, POLCO). The crop tested was Corn (var. Viking).\nTo determine PRE efficacy and corn injury, five rates of each 2,4 DC (36.7% CS) and S-metolachlor (Dual II Magnum®, 82.4%) were applied either alone or as tank-mix. 2,4 DC was applied at 0, 125, 170, 210, or 250 g ai/ha and S-metolachlor was applied at 0, 267, 534, 801, or 1070 g ai/ha. Additional treatments included application of premix of pyroxasulfone plus fluthiacet-methyl (Anthem™ 23.3%) at 169.9 g ai/ha and tank-mix of mesotrione (Callisto®, 40%) at 123 g plus S-metolachlor at 1252 g. Treatments were applied just after the planting of large crabgrass, Jimsonweed, black nightshade, redroot pigweed, Pennsylvania smartweed, horseweed, wild buckwheat, and corn.\nFlats were watered and fertilized routinely after treatment application. Each treatment was replicated three times. […] Corn injury was rated for bleaching and stunting."}, "weeds [2]": {"system": "weeds", "assay": "Ex24 PRE greenhouse", "format": "in vivo", "conditions": "weed and rate in the words", "text": "The tested weeds include Giant foxtail (Setaria faberi, SETFA), green foxtail (Setaria virdis, SETVI), yellow foxtail (Setaria pumila, SETLU), black nightshade (Solanum nigrum, SOLNI), kochia (Kochia scoparia, KCHSC), redroot pigweed (Amaranthus retroflexus, AMARE), common ragweed (Ambrosia artemisiifolia, AMBEL), barnyardgrass (Echinochloa crus-galli, ECHCG), large crabgrass (Digitaria sanguinalis, DIGSA).\nTo determine PRE efficacy, five levels of 2,4 DC-21 (36.7% CS) 0, 125, 170, 210, or 250 g ai/ha and five levels of pyroxasulfone (KIH485-85WG) 0, 50, 65, 80, or 95 g ai/ha were applied either alone or as tank-mix. Additional treatments consisted of premix of pyroxasulfone plus fluthiacet-methyl (Anthem™ 23.3%) at 169.9 g ai/ha, S-metolachlor (Dual II Magnum®, 82.4%) at 1388 g, and tank-mix of mesotrione (Callisto®, 40%) at 123 g plus S-metolachlor at 1252 g. […] Treatments were applied before the emergence of black nightshade, giant foxtail, green foxtail, yellow foxtail, large crabgrass, kochia, redroot pigweed, common ragweed, and bamyardgrass. […] Flats were watered and fertilized routinely after treatment application. Each treatment was replicated three times."}, "wheat": {"system": "wheat", "format": "in vivo", "conditions": "14 DAT, POST, 2,4-DC 210 g ai/ha", "experimental": "(§1) Treatments were applied to wheat and barley crops.\n(§2) Nonionic surfactant was added at 0.5% v/v in all treatments. Treatments were applied to wheat (5.5″), barley (5″), wild oat (5.5″), common chickweed (2″), wild buckwheat (3″), and common lambsquarters (2″). All plant species were direct seeded into 3″ plastic pots using metro-mix as growth media and pots were watered well before application and watered 24 h after application. Plants were watered and fertilized routinely after treatment application. Each treatment was replicated four times."}, "Barley": {"system": "Barley", "format": "in vivo", "conditions": "14 DAT", "experimental": "as §1, §2"}, "weeds; barley and wheat": {"system": "weeds; barley and wheat", "assay": "Ex40 POST greenhouse", "format": "in vivo", "conditions": "rate in the words", "experimental": "Treatments were applied to barley and wheat crops.\nNon-ionic surfactant (NIS) was added to all treatments at 0.5% v/v. All plant species were direct seeded into 3″ plastic pots using metro-mix as growth media. At treatment common lambsquarters was 1.75″, common chickweed was 2″, wild mustard was 2.25″, wild oat was 5.5″, wild buckwheat was 2-5″, Italian ryegrass was 2-3″, wheat was 5.5″ and barley was 4.5″ in height. Plants were watered well before application and not watered 24 h after application. Plants were watered and fertilized routinely after treatment application. Each treatment was replicated four times. Treated flats were placed in randomized block design in the greenhouse."}},
  "note": "Read-outs that look alike come from different tables or passages of the source.",
  "data": [
    {"smiles": "CC1(C)CON(Cc2ccc(Cl)cc2Cl)C1=O", "note": "[2,4-DC, 2-(2,4-dichlorophenyl)methyl-4,4-dimethyl-3-isoxazolidinone]", "values": [
      {"measurement": "weed control in words", "setting": "weeds [1]", "value": "alone at all rates did not control most of the species"},
      {"measurement": "weed control in words", "setting": "weeds; Sugarcane (CTC20)", "value": "applied alone at ≥500 g ai/ha controlled (≥85% injury) large crabgrass and redroot pigweed"},
      {"measurement": "X", "setting": "Wild buckwheat; 2,4-DC alone 125 g ai/ha", "value": 15, "unit": "%"},
      {"measurement": "X", "setting": "Wild buckwheat; 2,4-DC alone 170 g ai/ha", "value": 43, "unit": "%"},
      {"measurement": "X", "setting": "Wild buckwheat; 2,4-DC alone 210 g ai/ha", "value": 30, "unit": "%"},
      {"measurement": "X", "setting": "Wild buckwheat; 2,4-DC alone 250 g ai/ha", "value": 32, "unit": "%"},
      {"measurement": "weed control in words", "setting": "weeds [2]", "value": "alone controlled kochia at 210 g ai/ha, barnyardgrass and large crabgrass at 125 g, giant foxtail and green foxtail at 170 g"},
      {"measurement": "% crop injury for 2,4-DC alone", "setting": "wheat", "value": 31, "unit": "%"},
      {"measurement": "% crop injury for 2,4-DC alone", "setting": "Barley; POST, 2,4-DC 125 g ai/ha", "value": 17, "unit": "%"},
      {"measurement": "% crop injury for 2,4-DC alone", "setting": "Barley; POST, 2,4-DC 170 g ai/ha", "value": 17, "unit": "%"},
      {"measurement": "% crop injury for 2,4-DC alone", "setting": "Barley; POST, 2,4-DC 210 g ai/ha", "value": 18, "unit": "%"},
      {"measurement": "% crop injury for 2,4-DC alone", "setting": "Barley; POST, 2,4-DC 250 g ai/ha", "value": 23, "unit": "%"},
      {"measurement": "weed control / crop safety in words", "setting": "weeds; barley and wheat", "value": "applied alone was safe at all rates on both wheat and barley"}
    ]}
  ]
}
